Experimental data from PMC7389528, “Anti-tubercular derivatives of rhein require activation by the monoglyceride lipase Rv0183” (The Cell Surface, 2020).
In brackets after ≈: the same amount, converted by molar mass. Several values for one entry are separate records, joined by “and”; a condition that tells them apart may be missing. Equal entries are not always repeated. Entries after “also recorded” stand apart in the source; their conditions may differ.

Key:
[1] = tested on: Mtb clinical isolate 12611; test: microbe, parasite or virus in culture; format: cell-based; conditions: Mycobacterium tuberculosis
[2] = tested on: Mtb clinical isolate 14231; test: microbe, parasite or virus in culture; format: cell-based; conditions: Mycobacterium tuberculosis
[3] = tested on: M. bovis BCG; format: cell-based
[4] = tested on: M. bovis BCG HTB-04 mutant 2 (BCG_0220-S172P); format: cell-based
[5] = molecular target: T1, WT Rv0183 (BCG_0220) (Mycobacterium tuberculosis, UniProt O07427); format: biochemical; conditions: 10 μM WT Rv0183, 5 μg compound, 37 °C, 1 h
T1 construct: poly-histidine (pET28a vector-encoded) (N); made in house; host or cells: E. coli SHuffle T7 (K12), pET28a

[6] = molecular target: Rv0183-VAAQD137D (Mycobacterium tuberculosis, UniProt O07427, DEL137-140); format: biochemical, M. bovis BCG
[7] = molecular target: Rv0183-S172P (Mycobacterium tuberculosis, UniProt O07427, S172P); format: biochemical, M. bovis BCG

Structure (SMILES) | MIC [1] [µM] | MIC [2] [µM] | frequency of resistance [3] | IC50 [4] | enzyme activity on compound (TLC) [5] | enzyme activity on compound (TLC) [6] | enzyme activity on compound (TLC) [7]
NNC(=O)c1ccncc1 [INH, isoniazid, reference compound] | 142 (≈ 19.5 µg/mL) | > 292 | – | – | – | – | –
CC(=O)Oc1cccc2c1C(=O)c1c(OC(C)=O)cc(C(=O)OCCCCCl)cc1C2=O [HTB-04] | 3.66 (≈ 1.68 µg/mL) | 2.04 (≈ 0.936 µg/mL) | 85 × 10^-8 | 6.23 µM and 3.51 µM | partially hydrolyzed to rhein; also recorded: inconclusive | – | –
O=C(OCCCCCl)c1cc(O)c2c(c1)C(=O)c1cccc(O)c1C2=O [HTB-03] | 2.64 (≈ 0.989 µg/mL) | 2.4 (≈ 0.899 µg/mL) | 83 × 10^-8 and 100 × 10^-8 | – | converted to rhein | minimal | no activity
O=C(O)c1cc(O)c2c(c1)C(=O)c1cccc(O)c1C2=O [Rhein, rhein] | – | – | – | – | no apparent activity | no apparent activity | no apparent activity
